One assay has as its target hNaV1.1 (Homo sapiens, UniProt P35498). The assay is described as follows: hNaV1.1 peak current inhibition, automated whole-cell patch clamp (QPatch 16X). Format: cell-based. Conditions: for IC50: HEK293 + β1, holding −80 mV, 20 ms step to 0 mV from −120 mV 200 ms prepulse, 5 min incubation, mean ± SEM, 3 to 9 independent experiments, read-out: IC50, inhibition of peak current, NaV1.1. The protocol:
(§1) Unless otherwise specified, all cell culture reagents were obtained from Life Technologies (Carlsbad, CA, USA). The human neuroblastoma cell line SH-SY5Y (ATCC CRL-2266; Manassas, VA, USA) was maintained in RPMI medium supplemented with 15% fetal bovine serum (FBS) and 2 mM L-glutamine. HEK293 cells stably expressing human NaV channel isoforms together with the β1 auxiliary subunit (SB Drug Discovery, Glasgow, UK) were propagated in Minimal Essential Medium (MEM; Sigma-Aldrich, St. Louis, MO, USA) containing 10% FBS, 100 U/mL penicillin, 100 µg/mL streptomycin, 2 mM L-glutamine, and selective antibiotics (blasticidin, geneticin, and zeocin) at concentrations recommended by the supplier. […]
(§2) Sodium channel currents were recorded from HEK293 cells expressing human NaV isoforms together with the β1 auxiliary subunit (SB Drug Discovery, Glasgow, UK) using the QPatch 16X automated whole-cell patch-clamp platform (Sophion Bioscience A/S, Ballerup, Denmark). […] For determining the potency of Oa1a peptides to inhibit peak current, the maximum peak current within the 20 ms at 0 mV was measured. For determining the potency of Oa1a-NH2 to slow fast inactivation, peak current values were measured at 20 ms of the 0 mV depolarization step. […]
(§3) For calcium influx experiments, bioactivity comparisons between venom fractions and controls were based on the difference between the maximal and minimal fluorescence intensity values obtained from single-replicate assays. […] Reversibility and dissociation kinetics were analyzed by fitting data with a single-phase exponential decay model, while voltage-dependence of steady-state activation and inactivation parameters were derived from Boltzmann sigmoid fits of normalized conductance (G/Gmax) or current (I/Imax) values to determine the half-activation or half-inactivation voltages (V50). Data are expressed as mean ± SEM, where n represents the number of individual cells analyzed.
On the technique in general: The patch-clamp technique gives a direct electrical read-out from membranes.

For another assay, the target named is hNaV1.2 (Homo sapiens, UniProt Q99250). The assay is described as follows: hNaV1.2 peak current inhibition, automated whole-cell patch clamp (QPatch 16X). In kind it is cell-based. Conditions: for IC50: HEK293 + β1, holding −80 mV, 20 ms step to 0 mV from −120 mV 200 ms prepulse, 5 min incubation, mean ± SEM, 3 to 9 independent experiments, read-out: IC50, inhibition of peak current, NaV1.2. How it is done: as §1, §2, §3
hNaV1.2, sequence (Q99250 whole entry): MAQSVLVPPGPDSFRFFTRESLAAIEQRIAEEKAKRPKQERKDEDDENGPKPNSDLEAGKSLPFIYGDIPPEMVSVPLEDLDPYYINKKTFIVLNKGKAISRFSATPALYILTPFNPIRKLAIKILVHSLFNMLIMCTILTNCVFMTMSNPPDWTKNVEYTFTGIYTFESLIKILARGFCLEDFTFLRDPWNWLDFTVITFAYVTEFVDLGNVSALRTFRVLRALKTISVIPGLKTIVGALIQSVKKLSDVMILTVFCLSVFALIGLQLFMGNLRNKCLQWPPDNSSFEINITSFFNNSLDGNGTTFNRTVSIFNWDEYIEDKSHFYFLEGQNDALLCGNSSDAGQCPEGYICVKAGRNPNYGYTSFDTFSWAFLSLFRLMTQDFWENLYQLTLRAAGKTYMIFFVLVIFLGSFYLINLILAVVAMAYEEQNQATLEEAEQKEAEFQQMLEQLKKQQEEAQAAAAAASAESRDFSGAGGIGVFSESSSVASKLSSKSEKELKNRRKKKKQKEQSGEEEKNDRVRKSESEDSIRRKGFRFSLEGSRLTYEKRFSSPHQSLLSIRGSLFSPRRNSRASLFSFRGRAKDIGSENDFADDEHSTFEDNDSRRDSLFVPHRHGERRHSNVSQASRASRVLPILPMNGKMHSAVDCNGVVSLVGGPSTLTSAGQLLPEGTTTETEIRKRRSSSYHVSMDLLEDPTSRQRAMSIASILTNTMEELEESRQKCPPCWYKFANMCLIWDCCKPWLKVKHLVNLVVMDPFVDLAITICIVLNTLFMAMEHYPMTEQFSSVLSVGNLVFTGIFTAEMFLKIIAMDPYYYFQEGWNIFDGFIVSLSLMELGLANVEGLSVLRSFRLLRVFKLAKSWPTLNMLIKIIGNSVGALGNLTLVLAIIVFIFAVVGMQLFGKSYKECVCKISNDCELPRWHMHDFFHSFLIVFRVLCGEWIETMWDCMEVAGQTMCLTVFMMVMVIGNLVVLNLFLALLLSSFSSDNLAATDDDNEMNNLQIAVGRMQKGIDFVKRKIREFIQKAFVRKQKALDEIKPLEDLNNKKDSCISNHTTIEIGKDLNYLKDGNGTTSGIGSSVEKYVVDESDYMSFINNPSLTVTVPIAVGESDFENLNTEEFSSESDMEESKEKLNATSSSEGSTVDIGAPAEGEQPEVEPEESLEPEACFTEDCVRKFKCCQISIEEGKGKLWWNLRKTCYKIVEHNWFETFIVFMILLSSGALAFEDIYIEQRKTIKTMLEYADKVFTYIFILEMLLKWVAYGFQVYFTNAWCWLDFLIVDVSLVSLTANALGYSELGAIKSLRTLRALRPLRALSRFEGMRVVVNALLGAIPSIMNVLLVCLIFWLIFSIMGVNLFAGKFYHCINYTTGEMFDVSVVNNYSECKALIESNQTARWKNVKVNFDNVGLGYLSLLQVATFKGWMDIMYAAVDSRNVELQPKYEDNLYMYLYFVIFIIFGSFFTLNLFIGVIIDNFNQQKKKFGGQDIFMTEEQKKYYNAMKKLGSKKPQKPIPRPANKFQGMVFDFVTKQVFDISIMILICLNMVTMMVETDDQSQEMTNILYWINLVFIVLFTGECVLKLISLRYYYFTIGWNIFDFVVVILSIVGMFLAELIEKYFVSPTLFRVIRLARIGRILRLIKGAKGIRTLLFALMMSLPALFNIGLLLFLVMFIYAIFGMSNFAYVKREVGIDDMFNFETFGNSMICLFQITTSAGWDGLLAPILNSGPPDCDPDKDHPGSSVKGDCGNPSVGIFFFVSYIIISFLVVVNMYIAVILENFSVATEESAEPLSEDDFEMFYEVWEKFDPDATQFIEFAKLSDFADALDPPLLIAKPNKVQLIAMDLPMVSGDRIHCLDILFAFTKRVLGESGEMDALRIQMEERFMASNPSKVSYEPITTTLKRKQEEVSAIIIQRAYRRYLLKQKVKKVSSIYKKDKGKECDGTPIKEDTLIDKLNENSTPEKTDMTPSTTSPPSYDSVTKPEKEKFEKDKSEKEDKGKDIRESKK
hNaV1.2, sequence (Q07699 19-218, further chain): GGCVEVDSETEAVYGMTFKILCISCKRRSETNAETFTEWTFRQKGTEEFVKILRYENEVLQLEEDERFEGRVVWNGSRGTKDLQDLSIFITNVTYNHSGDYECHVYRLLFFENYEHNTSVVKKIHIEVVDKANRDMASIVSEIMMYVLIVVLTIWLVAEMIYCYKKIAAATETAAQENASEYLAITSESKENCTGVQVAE

Another assay addresses hNaV1.3 (Homo sapiens, UniProt Q9NY46). The assay is described as follows: hNaV1.3 peak current inhibition, automated whole-cell patch clamp (QPatch 16X). In kind it is cell-based. To be noted: for IC50: HEK293 + β1, holding −80 mV, 20 ms step to 0 mV from −120 mV 200 ms prepulse, 5 min incubation, mean ± SEM, 3 to 9 independent experiments, read-out: IC50, inhibition of peak current, NaV1.3. How it is done:
as §1, §2, §3

Another assay addresses NaV1.1 (Homo sapiens, UniProt P35498). The assay is described as follows: Off-rate / reversibility on NaV1.1, patch clamp with saline washes. To be noted: for 95% CI of off-rate (dissociation time), NaV1.1: peptide at 10× IC50 for 10 min, then saline washes, 3 to 5 independent repeats; for Reversibility on NaV1.1 by washing: peptide at 10× IC50 for NaV1.1, then washing. In kind it is cell-based. How it is done: For off-rate measurements, cells at a holding potential −80 mV were incubated with peptide for 10 min at a concentration equivalent to 10 times their IC50 for the NaV subtype being analyzed, followed by saline washes. Na^+ currents were assessed every 10 s utilizing a holding potential −80 mV and currents elicited by 20 ms voltage step to 0 mV from a −120 mV conditioning pulse applied for 200 ms. Ion currents (INa) plotted as I/Imax, where I = current value and Imax = highest current value within the experiment.
(§4) For calcium influx experiments, bioactivity comparisons between venom fractions and controls were based on the difference between the maximal and minimal fluorescence intensity values obtained from single-replicate assays. Electrophysiological data analysis was conducted using GraphPad Prism (version 8; GraphPad Software, San Diego, CA, USA). Nonlinear regression was applied to fit the concentration–response relationships using a variable Hill slope: log(inhibitor) versus normalized response for determining IC50 values, and log(agonist) versus normalized response for EC50 calculations. Reversibility and dissociation kinetics were analyzed by fitting data with a single-phase exponential decay model, while voltage-dependence of steady-state activation and inactivation parameters were derived from Boltzmann sigmoid fits of normalized conductance (G/Gmax) or current (I/Imax) values to determine the half-activation or half-inactivation voltages (V50). Data are expressed as mean ± SEM, where n represents the number of individual cells analyzed.

For another assay, the system named is NaV1.7. The assay is described as follows: Voltage dependence of steady-state inactivation and activation, NaV1.7. Conditions: for V50 of steady-state activation in presence of peptide, NaV1.7: control V50 = −28 ± 0.5 mV (sOa1a-NH2 experiment), −25 ± 0.7 mV (sOa1a-OH experiment); for V50 of steady-state activation in presence of peptide, NaV1.7 / V50 of steady-state inactivation in presence of peptide, NaV1.7: 5 min at IC50 concentration, mean ± SEM, 3 to 5 repeats; for V50 of steady-state inactivation in presence of peptide, NaV1.7: control V50 = −66 ± 0.7 mV (sOa1a-NH2 experiment), −66 ± 0.3 mV (sOa1a-OH experiment); for Effect on current–voltage relationships (activation, steady-state inactivation), NaV1.7: peptide at IC50 concentration. Format: cell-based, human. The protocol: The voltage dependence of steady-state activation was assessed by recording sodium currents evoked by depolarizing voltage steps ranging from −110 mV to +80 mV in 5 mV increments. Peak conductance (GNa) was derived using the equation G = I/(V − Vrev), where I denotes the measured current, V the applied membrane potential, and Vrev the sodium reversal potential. To evaluate the voltage dependence of steady-state fast inactivation, a two-pulse protocol was used. Cells were conditioned with 500 ms pre-pulses at potentials between −130 mV and −10 mV (10 mV increments), followed by a 20 ms test depolarization to 0 mV to elicit sodium currents. The steady-state fast inactivation currents were plotted as I/Imax, where I = current value and Imax = highest current value within the experiment. The voltage-dependence of steady-state activation and inactivation were determined either in the absence of peptide or following 5 min exposure to peptide at the respective IC50 concentration at the NaV subtype analyzed to streamline the investigation using an effective single concentration as previously described by us.
as §4

The values that follow come from paper PMC12656268, “Venom Peptides Across Asian and American Tarantulas Utilize Dual Pharmacology to Target Activation and Fast Inactivation of Voltage-Gated Sodium Channels” (Toxins, 2025).

SMILES strings stand for the structures. Entries after “also recorded” stand apart in the source; their conditions may differ. Positions of bridges follow the written chain, without caps; N, C: chain ends. Residues, ends and D or L forms follow the SMILES beside them.

hNaV1.3, sequence (Q9NY46 whole entry): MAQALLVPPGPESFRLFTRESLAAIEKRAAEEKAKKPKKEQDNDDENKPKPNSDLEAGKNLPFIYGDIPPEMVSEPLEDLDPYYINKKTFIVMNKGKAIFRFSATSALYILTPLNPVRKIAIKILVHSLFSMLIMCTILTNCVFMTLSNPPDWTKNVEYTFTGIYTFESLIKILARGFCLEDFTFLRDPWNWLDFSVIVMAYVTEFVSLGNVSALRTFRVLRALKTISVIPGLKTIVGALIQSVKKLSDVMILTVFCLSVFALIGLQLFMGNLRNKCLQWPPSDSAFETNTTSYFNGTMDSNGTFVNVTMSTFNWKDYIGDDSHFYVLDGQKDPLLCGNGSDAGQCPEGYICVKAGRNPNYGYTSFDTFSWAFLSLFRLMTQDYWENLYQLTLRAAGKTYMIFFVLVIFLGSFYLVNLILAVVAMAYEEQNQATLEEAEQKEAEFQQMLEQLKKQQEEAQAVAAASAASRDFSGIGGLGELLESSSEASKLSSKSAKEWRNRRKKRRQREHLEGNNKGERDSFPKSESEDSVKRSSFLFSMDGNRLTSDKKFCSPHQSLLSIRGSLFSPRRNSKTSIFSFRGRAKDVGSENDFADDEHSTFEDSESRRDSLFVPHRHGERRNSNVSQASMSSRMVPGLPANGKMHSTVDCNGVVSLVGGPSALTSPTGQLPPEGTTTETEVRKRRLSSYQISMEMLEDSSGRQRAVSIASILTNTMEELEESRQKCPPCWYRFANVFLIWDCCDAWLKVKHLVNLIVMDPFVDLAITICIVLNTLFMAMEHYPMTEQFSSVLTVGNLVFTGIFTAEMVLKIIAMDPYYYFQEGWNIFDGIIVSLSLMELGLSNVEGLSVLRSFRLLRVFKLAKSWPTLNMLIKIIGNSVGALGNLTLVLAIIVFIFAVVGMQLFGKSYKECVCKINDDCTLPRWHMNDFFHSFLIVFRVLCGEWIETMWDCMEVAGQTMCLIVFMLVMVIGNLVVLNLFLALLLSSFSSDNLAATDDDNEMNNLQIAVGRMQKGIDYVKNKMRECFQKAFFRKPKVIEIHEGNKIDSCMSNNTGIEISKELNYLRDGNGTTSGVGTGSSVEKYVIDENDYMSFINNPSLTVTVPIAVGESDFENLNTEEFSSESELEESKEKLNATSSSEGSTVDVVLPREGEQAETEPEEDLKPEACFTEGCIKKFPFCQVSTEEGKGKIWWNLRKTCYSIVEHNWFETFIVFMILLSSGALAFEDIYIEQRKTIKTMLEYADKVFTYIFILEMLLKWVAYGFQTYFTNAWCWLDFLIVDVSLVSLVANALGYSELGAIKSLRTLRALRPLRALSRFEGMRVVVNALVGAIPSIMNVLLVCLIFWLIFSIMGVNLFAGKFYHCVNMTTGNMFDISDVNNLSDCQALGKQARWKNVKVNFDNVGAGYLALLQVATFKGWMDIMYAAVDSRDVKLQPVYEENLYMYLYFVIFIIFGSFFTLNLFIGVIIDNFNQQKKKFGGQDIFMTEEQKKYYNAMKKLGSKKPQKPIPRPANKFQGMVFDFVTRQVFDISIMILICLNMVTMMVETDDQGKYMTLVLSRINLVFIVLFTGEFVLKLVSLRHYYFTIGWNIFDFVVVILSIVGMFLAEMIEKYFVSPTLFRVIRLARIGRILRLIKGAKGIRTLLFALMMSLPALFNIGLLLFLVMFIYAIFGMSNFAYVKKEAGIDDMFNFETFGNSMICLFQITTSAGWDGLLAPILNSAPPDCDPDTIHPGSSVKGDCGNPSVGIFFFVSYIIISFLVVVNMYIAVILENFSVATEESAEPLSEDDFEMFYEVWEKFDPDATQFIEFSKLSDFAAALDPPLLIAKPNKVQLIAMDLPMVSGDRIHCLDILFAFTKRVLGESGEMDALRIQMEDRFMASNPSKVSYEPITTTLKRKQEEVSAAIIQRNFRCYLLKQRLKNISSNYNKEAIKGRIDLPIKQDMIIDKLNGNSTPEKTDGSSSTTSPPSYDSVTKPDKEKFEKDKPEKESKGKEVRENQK
hNaV1.3, sequence (Q07699 19-218, further chain): as the sequence (Q07699 19-218, further chain) above

Regarding `CC(C)C[C@@H]1NC(=O)[C@H](Cc2ccccc2)NC(=O)[C@H](Cc2ccc(O)cc2)NC(=O)[C@H](CCCNC(=N)N)NC(=O)[C@@H](NC(=O)[C@@H](N)CCC(=O)O)CSSC[C@@H]2NC(=O)[C@@H]3CSSC[C@@H](C(=O)N[C@H](C(=O)N[C@@H](Cc4c[nH]c5ccccc45)C(=O)N[C@@H](CC(=O)O)C(=O)N[C@@H](Cc4c[nH]c5ccccc45)C(=O)N[C@H](C(=O)N[C@@H](Cc4ccccc4)C(=O)O)[C@@H](C)O)C(C)C)NC(=O)[C@H](Cc4c[nH]c5ccccc45)NC(=O)[C@H](CCC(N)=O)NC(=O)[C@H](Cc4c[nH]cn4)NC(=O)[C@H](CCCCN)NC(=O)[C@H](CC(N)=O)NC(=O)[C@H](Cc4c[nH]cn4)NC(=O)[C@H](CSSC[C@H](NC(=O)CNC(=O)CNC1=O)C(=O)N[C@@H](CO)C(=O)N[C@@H](CCC(N)=O)C(=O)NCC(=O)N[C@@H](CCC(=O)O)C(=O)N[C@@H](CCCCN)C(=O)N3)NC(=O)[C@H](C(C)C)NC(=O)[C@H](CC(C)C)NC(=O)[C@H](Cc1c[nH]cn1)NC(=O)[C@H](CCC(=O)O)NC2=O` [sOa1a-OH] (H-ECRYFLGGCSQGEKCCEHLVCHNKHQWCVWDWTF-OH; disulfide 2-16, 9-21, 15-28; N-terminus assumed), the IC50 at hNaV1.1 was found to be 274 ± 18 nM. At hNaV1.1 (ratio of IC50 values), the “Ratio OH/NH2 (IC50 sOa1a-OH / IC50 sOa1a-NH2), NaV1.1” value was 16. In addition, the IC50 at hNaV1.2 is > 3000 nM. Further, the “Activity on NaV1.2 (in words)” value on hNaV1.2 (tested at up to 3 μM) is given as “no activity”. Moreover, the IC50 at hNaV1.3 is > 3000 nM. Besides, the “Activity on NaV1.3 (in words)” value at hNaV1.3 (tested at up to 3 μM) is “no activity”. Moreover, on NaV1.1, the “95% CI of off-rate (dissociation time), NaV1.1” value is “Off-rate 3.56 min (95% CI = 3.35 to 3.80 min)” and the “Reversibility on NaV1.1 by washing” value is given as “completely reversed by washing”. Further, in the assay on NaV1.7, the “V50 of steady-state activation in presence of peptide, NaV1.7” value is given as −22 mV; the “V50 of steady-state inactivation in presence of peptide, NaV1.7” value is recorded as −71 mV; the “Effect on current–voltage relationships (activation, steady-state inactivation), NaV1.7” value is given as “remained nearly unaltered”.

Take `CC(C)C[C@@H]1NC(=O)[C@H](Cc2ccccc2)NC(=O)[C@H](Cc2ccc(O)cc2)NC(=O)[C@H](CCCNC(=N)N)NC(=O)[C@@H](NC(=O)[C@@H](N)CCC(=O)O)CSSC[C@@H]2NC(=O)[C@@H]3CSSC[C@@H](C(=O)N[C@H](C(=O)N[C@@H](Cc4c[nH]c5ccccc45)C(=O)N[C@@H](CC(=O)O)C(=O)N[C@@H](Cc4c[nH]c5ccccc45)C(=O)N[C@H](C(=O)N[C@@H](Cc4ccccc4)C(N)=O)[C@@H](C)O)C(C)C)NC(=O)[C@H](Cc4c[nH]c5ccccc45)NC(=O)[C@H](CCC(N)=O)NC(=O)[C@H](Cc4c[nH]cn4)NC(=O)[C@H](CCCCN)NC(=O)[C@H](CC(N)=O)NC(=O)[C@H](Cc4c[nH]cn4)NC(=O)[C@H](CSSC[C@H](NC(=O)CNC(=O)CNC1=O)C(=O)N[C@@H](CO)C(=O)N[C@@H](CCC(N)=O)C(=O)NCC(=O)N[C@@H](CCC(=O)O)C(=O)N[C@@H](CCCCN)C(=O)N3)NC(=O)[C@H](C(C)C)NC(=O)[C@H](CC(C)C)NC(=O)[C@H](Cc1c[nH]cn1)NC(=O)[C@H](CCC(=O)O)NC2=O` [sOa1a-NH2] (H-ECRYFLGGCSQGEKCCEHLVCHNKHQWCVWDWTF-NH2; disulfide 2-16, 9-21, 15-28; N-terminus assumed): the concentration for half-maximal inhibition (IC50) at hNaV1.1 was found to be 17 ± 1 nM. Moreover, at hNaV1.2, the IC50 came to 154 ± 7 nM. The IC50 at hNaV1.3 was determined as 162 ± 8 nM. Moreover, on NaV1.1, the “95% CI of off-rate (dissociation time), NaV1.1” value is recorded as “Off-rate 4.6 min (95% CI = 4.27 to 4.97 min)” and the “Reversibility on NaV1.1 by washing” value was “completely reversed by washing”. Also, at NaV1.1 (sOa1a-NH2 vs sOa1a-OH), the “Increase in off-rate through C-terminal amidation, NaV1.1” value worked out at 1 min. Also, in the assay with NaV1.7, the “V50 of steady-state activation in presence of peptide, NaV1.7” value is listed as −30 mV; the “V50 of steady-state inactivation in presence of peptide, NaV1.7” value is −69 mV; the “Effect on current–voltage relationships (activation, steady-state inactivation), NaV1.7” value is “remained nearly unaltered; also recorded: did not alter the voltage of activation or the steady-state inactivation”.

By IC50 is commonly meant the concentration that inhibits the measured activity by half.
